PubChem BioAssay (NCI)
Values joined by “and” are separate entries in the source; they are usually repeats but may differ in a detail not shown here. Equal values may be shown once.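 Where inhibition never reached the appropriate level, the endpoint shown equals the highest concentration tested. Otherwise, values were interpolated linearly from a five-concentration, 48-hour dose response in 96-well plates. Here, GI50 denotes the concentration required for 50% inhibition of growth. TGI denotes the concentration required for complete inhibition of growth.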

Legend:
Test in all cases: NCI anticancer screen, dose series, 48 h
[1] = tested on: SK-MEL-28 melanoma
[2] = tested on: RPMI-8226 leukemia
[3] = tested on: UACC-257 melanoma
[4] = tested on: NCI-H23 lung
[5] = tested on: OVCAR-5 ovarian
[6] = tested on: UACC-62 melanoma
[7] = tested on: SF-268 CNS
[8] = tested on: HOP-92 NSCLC
[9] = tested on: HL-60(TB) leukemia
[10] = tested on: RXF 393 renal

SMILES	TGI [1]	TGI [2]	TGI [3]	TGI [4]	TGI [5]	TGI [6]	TGI [7]	TGI [8]	TGI [9]	TGI [10] [µM]	GI50 [1]	GI50 [2]	GI50 [9]	GI50 [4]	GI50 [5]	GI50 [6]	GI50 [7]	GI50 [10] [µM]	GI50 [3]	GI50 [8]
CCCCCCC(C)CC(CCCCCC)NCCOC(=O)c1ccc([N+](=O)[O-])cc1 (stereo unspecified)	27 µM	24 µM and 30.2 µM	21.4 µM and 16.8 µM	38.9 µM and 34.5 µM	> 100 µM and 50 µM	28.7 µM and 26.6 µM	30.7 µM and 27.6 µM	23.9 µM and 23 µM	–	–	–	–	–	–	–	–	–	–	–	–
Cc1cccc(C(C)(C)C)c1NC(=O)CC1C(=O)Nc2ccccc2S1=O (stereo unspecified)	> 100 µM	> 100 µM	> 100 µM	67.6 µM	> 100 µM	–	> 100 µM	> 100 µM	43.7 µM	–	–	–	–	–	–	–	–	–	–	–
COc1cc2c(cc1OC)-c1c(cnn1C1OC(COC(C)=O)C(OC(C)=O)C(OC(C)=O)C1OC(C)=O)CC2 (stereo unspecified)	> 100 µM	> 57.3 µM	> 100 µM	> 100 µM	> 100 µM	> 100 µM	> 100 µM	> 100 µM	–	–	–	–	–	–	–	–	–	–	–	–
CC1C(=O)N=C2C(=CN(Cc3ccccc3)c3ccccc32)C(=O)N1C (stereo unspecified)	> 100 µM	> 100 µM	> 100 µM	> 100 µM	> 100 µM	> 100 µM	> 100 µM	> 100 µM	–	> 100	–	–	–	–	–	–	–	–	–	–
COc1ccc(-c2ccc(/C=N/n3cn[nH]c3=S)o2)c([N+](=O)[O-])c1	> 100 µM	70.1 µM	–	> 100 µM	> 100 µM	> 100 µM	> 100 µM	–	33.7 µM	> 100	48.6 µM	22.5 µM	14.5 µM	39.3 µM	97.1 µM	41.1 µM	29.1 µM	32.2	–	–
CCCCCCN1C(=O)/C(=c2\sc3n(c2=O)C2C(NN=3)N(CC)C(=O)N2CC)c2ccccc21 (stereo unspecified)	> 50 µM	> 50 µM	> 50 µM	> 50 µM	> 50 µM	> 50 µM	–	–	43.9 µM	3.98	2.09 µM	2.57 µM	1.96 µM	2.05 µM	2.03 µM	2.89 µM	–	1.2	3.09 µM	–
CNC(=O)c1cc(Oc2ccc3nc(NC(=O)Nc4ccc(Cl)c(Cl)c4)sc3c2)ccn1	3.56 µM	> 100 µM	–	> 100 µM	–	7.76 µM	4.21 µM	5.39 µM	> 100 µM	3.65	1.74 µM	3.66 µM	> 100 µM	2.78 µM	–	2.32 µM	1.98 µM	1.84	–	2.66 µM
Cn1c2ccccc2c2c(=O)n(CCCC(=O)NCC(=O)OC(=NC3CCCCC3)NC3CCCCC3)c3c(-c4ccccc4)nnn3c21	–	21.2 µM	> 100 µM	33 µM	32.5 µM	> 100 µM	> 100 µM	–	8.31 µM	36.9	–	4.26 µM	2.86 µM	15.6 µM	15.3 µM	25.8 µM	15 µM	11.1	66.4 µM	–
CCOC(=O)c1sc(=S)c2c(C(=O)c3ccccc3)c(C(=O)c3ccccc3)sc2c1C(=O)OCC	> 100 µM	9.19 µM	25.7 µM	–	–	17.8 µM	71.8 µM	90.1 µM	7.58 µM	> 100	25.3 µM	2.87 µM	2.71 µM	–	–	2.99 µM	3.55 µM	4.48	3.45 µM	4.74 µM
CCOC(=O)/C(C#N)=C(O)/C(=C/c1ccccc1Cl)NC(=O)c1ccccc1	> 100 µM	55.1 µM	> 100 µM	> 100 µM	> 100 µM	> 100 µM	> 100 µM	> 100 µM	> 100 µM	–	–	–	–	–	–	–	–	–	–	–
C=CCOc1cc2c(cc1C(C)c1ccc(OC)cc1)OCO2 (stereo unspecified)	> 100 µM	> 74.4 µM	6.44 µM	> 100 µM	> 100 µM	> 87.5 µM	> 74.3 µM	–	2.6 µM	0.485	–	–	–	–	–	–	–	–	–	–
N#C/C(=C\c1cn(-c2ccccc2)c2ccccc12)C(=O)O	> 100 µM	> 100 µM	> 100 µM	> 100 µM	> 100 µM	85.6 µM	> 100 µM	> 100 µM	–	> 100	33.9 µM	43 µM	–	35.7 µM	95.5 µM	23.8 µM	43.4 µM	28.7	> 100 µM	33.9 µM
COc1ccc(Cl)cc1N1C(=O)C(Cl)=C(Nc2cccc(O)c2)C1=O	83.8 µM	32.3 µM	–	41.4 µM	94.4 µM	27.9 µM	30.7 µM	–	–	29	24.4 µM	7.01 µM	–	16.6 µM	28.7 µM	12.3 µM	13.2 µM	7.36	–	–
CCNC(=O)C(O)C1(O)CCC2[C@@H]3CCC4=CC(=O)C=C[C@]4(C)C3[C@@H](O)C[C@@]21C (stereo partly specified)	> 100 µM	> 100 µM	> 100 µM	> 100 µM	> 100 µM	> 100 µM	> 79.9 µM	–	> 79.4 µM	> 100	–	–	–	–	–	–	–	–	–	–
COc1cc(C)cc2c1OC(c1ccccc1)CC2=O (stereo unspecified)	> 100 µM	–	> 100 µM	> 100 µM	> 100 µM	> 100 µM	> 100 µM	–	> 100 µM	> 100	> 100 µM	–	> 100 µM	> 100 µM	> 100 µM	> 100 µM	> 100 µM	> 100	> 100 µM	–
O=c1cc/c(=N\Nc2ccccc2)c(=O)/c1=N/Nc1ccccc1	–	–	> 50 µM	> 50 µM	> 50 µM	> 50 µM	> 50 µM	> 50 µM	> 50 µM	> 50	–	–	> 50 µM	> 50 µM	> 50 µM	> 50 µM	> 50 µM	> 50	> 50 µM	> 50 µM
CCCCCCn1c(-c2ccc(C(=O)O/N=C(\N)c3ccc(OC)cc3)cc2)nc(-c2ccccc2)c1-c1ccccc1	> 100 µM	3.9 µM	> 100 µM	2.93 µM	–	–	–	2.61 µM	–	3.17	2.96 µM	1.42 µM	–	1.31 µM	–	–	–	1.62	4.07 µM	1.12 µM
Cc1cccc(C(C)O)n1 (stereo unspecified)	> 100 µM	–	> 100 µM	> 100 µM	> 100 µM	> 100 µM	> 100 µM	–	> 100 µM	–	–	–	–	–	–	–	–	–	–	–

SMILES	TGI [1]	TGI [2]	TGI [3]	TGI [4]	TGI [5]	TGI [6]	TGI [7]	TGI [8]	TGI [9]	TGI [10] [µM]	GI50 [1]	GI50 [2]	GI50 [9]	GI50 [4]	GI50 [5]	GI50 [6]	GI50 [7]	GI50 [10] [µM]	GI50 [3]	GI50 [8]
COc1ccc(C2(CN(C)C)COc3cc(OC)c(OC)cc3C2=O)cc1OC (stereo unspecified)	> 100 µM	63.4 µM	> 100 µM	94.4 µM	–	> 100 µM	> 100 µM	> 100 µM	48.2 µM	79.2	–	–	–	–	–	–	–	–	–	–
COc1ccc2c(c1)[nH]c(=O)c1c3cccnc3cn21	> 100 µM	32.4 µM	25.5 µM	35.3 µM	> 100 µM	19.3 µM	42.7 µM	–	1.21 µM	0.055	0.054 µM	0.0596 µM	0.0262 µM	0.131 µM	0.205 µM	0.0431 µM	0.0686 µM	0.0195	0.677 µM	–
C[C@]12CC[C@H]3[C@@H](CCC4=CC(=O)CC[C@@H]43)[C@@H]1CC[C@@H]2OC1(O)C(=O)c2ccccc2C1=O	> 100 µM	80 µM	> 100 µM	62.5 µM	> 100 µM	33.6 µM	> 100 µM	> 100 µM	–	> 100	–	–	–	–	–	–	–	–	–	–
CN1C(c2ccccc2)CC(=Nc2ccccc2)CC1c1ccccc1 (stereo unspecified)	23.2 µM	13.7 µM	24.1 µM	39.9 µM	–	–	28.7 µM	22 µM	> 100 µM	31.4	–	–	–	–	–	–	–	–	–	–
[N-]=[N+]=Nc1ncc(-c2ccc(C(F)(F)F)cc2)c(NC2CCCCCC2)n1	> 10 µM	> 10 µM	> 10 µM	> 10 µM	> 10 µM	> 10 µM	> 10 µM	–	> 10 µM	> 10	> 10 µM	> 10 µM	> 10 µM	> 10 µM	> 10 µM	> 10 µM	> 10 µM	> 10	> 10 µM	–
Clc1nc(Cl)c2ncn(C/C=C\Cn3cnc4c(Cl)nc(Cl)nc43)c2n1	3.68 µM	–	12.1 µM	5.11 µM	18.4 µM	4.19 µM	5.71 µM	–	> 100 µM	4.35	1.94 µM	–	3.64 µM	2.09 µM	5.52 µM	2.04 µM	2.24 µM	2.18	2.56 µM	–
COc1n[n+]([O-])c(C)cc1[N+](=O)[O-]	–	19.1 µM	24.4 µM	30.3 µM	35.9 µM	23.7 µM	39.4 µM	35.2 µM	–	28.7	–	2.73 µM	–	14.8 µM	19.6 µM	10.7 µM	18.1 µM	13.3	10.9 µM	16.2 µM
CCOC(=O)c1cc2c(cc1Cl)SC(N(c1ccc(F)cc1)S(=O)(=O)c1ccc(OC)cc1)=NS2(=O)=O	29 µM	51.5 µM	–	44 µM	71 µM	30.5 µM	31.4 µM	19.2 µM	42.4 µM	–	14.1 µM	15 µM	18.5 µM	18.5 µM	32.4 µM	14.6 µM	14.5 µM	–	–	4.81 µM
Cc1sc2ncnc(Sc3nc4ccccc4[nH]3)c2c1C	74.7 µM	> 100 µM	98.9 µM	> 100 µM	> 100 µM	> 100 µM	62.1 µM	63.8 µM	59.4 µM	–	23.4 µM	19.5 µM	22.7 µM	30.4 µM	39.7 µM	17.3 µM	20.6 µM	–	24.7 µM	13.8 µM
O=C(CC(=O)Nc1ccc(Cl)cc1)NNCC(=O)Nc1nc(-c2ccccc2)cs1	> 100 µM	> 100 µM	–	> 100 µM	–	> 100 µM	> 100 µM	–	> 100 µM	> 100	–	–	–	–	–	–	–	–	–	–
CCCCCCCCCCCCCCCCC(C(=O)O)C(O)(CC(=O)O)C(=O)O (stereo unspecified)	59.1 µM	74.8 µM	> 100 µM	64.6 µM	35.1 µM	48.9 µM	70.3 µM	–	34.4 µM	53.4	–	–	–	–	–	–	–	–	–	–
CC1CCC2(OC1)OC1CC3C4CC=C5CC(OC6OC(CO)C(OC7OC(C)C(OC8OC(C)C(O)C(O)C8O)C(O)C7O)C(O)C6OC6OC(C)C(O)C(O)C6O)CCC5(C)C4CCC3(C)C1C2C (stereo unspecified)	1.85 µM	–	2.02 µM	3.13 µM	2.39 µM	1.51 µM	2.03 µM	1.9 µM	–	2.05	–	–	–	–	–	–	–	–	–	–
CCOC(=O)C1CCC/C1=N\N=C(N)N (stereo unspecified) (tested in a mixture with another compound)	> 100 µM	> 100 µM	> 100 µM	> 100 µM	> 100 µM	> 100 µM	> 100 µM	–	> 100 µM	> 100	–	–	–	–	–	–	–	–	–	–
N=C(c1ccccc1)N1CCCCC1	> 100 µM	–	> 100 µM	> 100 µM	> 100 µM	–	> 100 µM	–	> 100 µM	> 100	–	–	–	–	–	–	–	–	–	–
COC(=O)c1nc(-c2ccc(Cl)c(Cl)c2)nc2ccccc12	> 100 µM	> 100 µM	> 100 µM	> 100 µM	> 100 µM	> 100 µM	> 100 µM	–	> 100 µM	42.9	–	–	–	–	–	–	–	–	–	–
OCCN(CO)CN(CN(CO)CCO)c1nc(N(CN(CO)CCO)CN(CO)CCO)nc(N(CN(CO)CCO)CN(CO)CCO)n1	1.88 ng/mL	0.55 ng/mL	3.21 ng/mL	5.24 ng/mL	76.8 ng/mL	3.02 ng/mL	2.93 ng/mL	3.6 ng/mL	0.859 ng/mL	–	1.05 ng/mL	0.55 ng/mL	0.55 ng/mL	1.57 ng/mL	2.02 ng/mL	1.26 ng/mL	1.35 ng/mL	–	1.42 ng/mL	1.56 ng/mL
O=C1CCC(c2nc3ccccc3o2)C(=O)N1 (stereo unspecified)	> 100 µM	–	> 100 µM	> 100 µM	–	> 100 µM	> 100 µM	> 100 µM	> 100 µM	> 100	–	–	–	–	–	–	–	–	–	–
